Data as given in PubChem BioAssay (NCI).
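In this assay, cells in 96-well plates receive the compound at five concentrations for 48 hours. Endpoints are linearly interpolated between the surrounding concentrations. GI50 is the concentration that inhibits growth by half. TGI marks complete inhibition of growth.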

What was measured:
Assay in all cases: NCI anticancer screen, dose series, 48 h
HCT-116 colon = system: HCT-116 colon
MOLT-4 leukemia = system: MOLT-4 leukemia
SNB-19 CNS = system: SNB-19 CNS
OVCAR-5 ovarian = system: OVCAR-5 ovarian
NCI-H23 lung = system: NCI-H23 lung
CCRF-CEM leukemia = system: CCRF-CEM leukemia
DU-145 prostate = system: DU-145 prostate
HOP-62 NSCLC = system: HOP-62 NSCLC
SNB-75 CNS = system: SNB-75 CNS
HL-60(TB) leukemia = system: HL-60(TB) leukemia
HT29 colon = system: HT29 colon
RXF 393 renal = system: RXF 393 renal
ACHN renal = system: ACHN renal
SK-MEL-28 melanoma = system: SK-MEL-28 melanoma
UO-31 renal = system: UO-31 renal
LOX IMVI melanoma = system: LOX IMVI melanoma
K-562 leukemia = system: K-562 leukemia
NCI-H460 lung = system: NCI-H460 lung
SF-539 CNS = system: SF-539 CNS
SR leukemia = system: SR leukemia
HCC-2998 colon = system: HCC-2998 colon
A498 renal = system: A498 renal
OVCAR-8 ovarian = system: OVCAR-8 ovarian
BT-549 breast = system: BT-549 breast
786-0 renal = system: 786-0 renal
A549 NSCLC = system: A549 NSCLC
CAKI-1 renal = system: CAKI-1 renal
TK-10 renal = system: TK-10 renal
SK-MEL-5 melanoma = system: SK-MEL-5 melanoma
MCF7 breast = system: MCF7 breast
UACC-62 melanoma = system: UACC-62 melanoma

O=c1[nH]c(=O)n(C2C[C@@H](O)[C@@H](CO)O2)cc1F (some centres undefined)
GI50 (HCT-116 colon): 0.0289 µM | TGI (HCT-116 colon): > 100 µM | GI50 (MOLT-4 leukemia): 0.0375 µM | TGI (SNB-19 CNS): > 100 µM | GI50 (OVCAR-5 ovarian): 8.4 µM | TGI (OVCAR-5 ovarian): > 100 µM | TGI (NCI-H23 lung): > 100 µM | GI50 (CCRF-CEM leukemia): 0.0198 µM | TGI (CCRF-CEM leukemia): > 100 µM | TGI (DU-145 prostate): > 100 µM | TGI (HOP-62 NSCLC): 0.956 µM | TGI (SNB-75 CNS): > 21.4 µM | GI50 (HL-60(TB) leukemia): 0.482 µM | TGI (HL-60(TB) leukemia): > 100 µM | TGI (HT29 colon): > 100 µM | TGI (RXF 393 renal): 13.3 µM | TGI (ACHN renal): > 100 µM | GI50 (SK-MEL-28 melanoma): 0.433 µM | TGI (SK-MEL-28 melanoma): > 100 µM | TGI (UO-31 renal): 30.3 µM | TGI (LOX IMVI melanoma): > 100 µM | GI50 (K-562 leukemia): 0.156 µM | TGI (K-562 leukemia): > 100 µM | TGI (NCI-H460 lung): 9.8 µM | TGI (SF-539 CNS): > 60.8 µM | GI50 (SR leukemia): 0.184 µM | TGI (SR leukemia): > 38.1 µM | TGI (HCC-2998 colon): 4.45 µM | TGI (A498 renal): 7.48 µM | TGI (OVCAR-8 ovarian): > 100 µM | TGI (BT-549 breast): > 100 µM | TGI (786-0 renal): > 100 µM | TGI (A549 NSCLC): > 100 µM | TGI (CAKI-1 renal): > 100 µM | TGI (TK-10 renal): > 100 µM | TGI (SK-MEL-5 melanoma): 0.385 µM | GI50 (MCF7 breast): < 0.01 µM | TGI (MCF7 breast): > 100 µM | TGI (UACC-62 melanoma): > 100 µM
